Key:
[1] = human gut metagenome, 24 h, 2 µM
[2] = human gut metagenome, 24 h, 2 µM; remark: listed apart in the source
[3] = human gut metagenome, 24 h, 2 µM; remark: listed apart in the source
[4] = human gut metagenome, 24 h, 2 µM; remark: listed apart in the source
[5] = human gut metagenome, 24 h, 2 µM; remark: listed apart in the source
[6] = human gut metagenome, 24 h, 2 µM; remark: listed apart in the source
[7] = (§1) The drug is tested on Z-017 corresponding to mouse gut metagenome with ENA study accession number: PRJEB37062 and ENA sample accession number: ERS12561816 for biotransformation under anaerobic condition. The drug concentrations were measured over 9 timepoints collected between 0 and 24 hours of incubation by liquid-chromatography-coupled mass spectrometry (LC–MS); conditions: 2 µM
[8] = as §1, with “Z-018” for “Z-017”, “pig” for “mouse”, “ERS12561817” for “ERS12561816”; conditions: 2 µM
[9] = as §1, with “Z-006” for “Z-017”, “ERS12561806” for “ERS12561816”; conditions: 2 µM
[10] = human gut metagenome, 24 h, 2 µM; remark: listed apart in the source
[11] = as §1, with “WLS-007” for “Z-017”, “human” for “mouse”, “ERS12561742” for “ERS12561816”; conditions: 2 µM
[12] = as §1, with “Z-025” for “Z-017”, “rabbit” for “mouse”, “ERS12561824” for “ERS12561816”; conditions: 2 µM
[13] = human gut metagenome, 24 h, 2 µM; remark: listed apart in the source
[14] = as §1, with “Z-008” for “Z-017”, “to” for “to mouse gut”, “ERS12561808” for “ERS12561816”; conditions: 2 µM
[15] = as §1, with “WLS-098” for “Z-017”, “human” for “mouse”, “ERS12561754” for “ERS12561816”; conditions: 2 µM
[16] = as §1, with “WLS-077” for “Z-017”, “human” for “mouse”, “ERS12561750” for “ERS12561816”; conditions: 2 µM
[17] = as §1, with “Z-012” for “Z-017”, “to” for “to mouse gut”, “ERS12561812” for “ERS12561816”; conditions: 2 µM
[18] = human gut metagenome, 24 h, 2 µM; remark: listed apart in the source
[19] = as §1, with “Z-021” for “Z-017”, “to” for “to mouse gut”, “ERS12561820” for “ERS12561816”; conditions: 2 µM
[20] = as §1, with “Z-013” for “Z-017”, “rabbit” for “mouse”, “ERS12561813” for “ERS12561816”; conditions: 2 µM
Further: call rule not given here.

SMILES	Bacterial Biotransformation [1]	Bacterial Biotransformation [2]	Bacterial Biotransformation [3]	Bacterial Biotransformation [4]	Bacterial Biotransformation [5]	Bacterial Biotransformation [6]	Bacterial Biotransformation [7]	Bacterial Biotransformation [8]	Bacterial Biotransformation [9]	Bacterial Biotransformation [10]	Bacterial Biotransformation [11]	Bacterial Biotransformation [12]	Bacterial Biotransformation [13]	Bacterial Biotransformation [14]	Bacterial Biotransformation [15]	Bacterial Biotransformation [16]	Bacterial Biotransformation [17]	Bacterial Biotransformation [18]	Bacterial Biotransformation [19]	Bacterial Biotransformation [20]
CCCc1nc(C(C)(C)O)c(C(=O)OCc2oc(=O)oc2C)n1Cc1ccc(-c2ccccc2-c2nnn[nH]2)cc1 [OLMESARTAN MEDOXOMIL]	Compound metabolized	Compound metabolized	Compound metabolized	Compound metabolized	Compound metabolized	Compound metabolized	Compound metabolized	Compound metabolized	Compound metabolized	Compound NOT metabolized	Compound metabolized	Compound metabolized	Compound metabolized	Compound metabolized	Compound NOT metabolized	Compound metabolized	Compound metabolized	Compound metabolized	Compound metabolized	Compound metabolized
CCCC1O[C@@H]2C[C@H]3[C@@H]4CCC5=CC(=O)C=C[C@]5(C)[C@H]4[C@@H](O)C[C@]3(C)[C@]2(C(=O)CO)O1 (stereo not given in full) [BUDESONIDE]	Compound metabolized	Compound metabolized	Compound metabolized	Compound metabolized	Compound metabolized	Compound metabolized	Compound metabolized	Compound metabolized	Compound NOT metabolized	Compound metabolized	Compound metabolized	Compound NOT metabolized	Compound metabolized	Compound metabolized	Compound metabolized	Compound metabolized	Compound metabolized	Compound NOT metabolized	Compound metabolized	Compound metabolized
N#Cc1ccc(C(c2ccc(C#N)cc2)n2cncn2)cc1 [LETROZOLE]	Compound NOT metabolized	Compound NOT metabolized	Compound NOT metabolized	Compound NOT metabolized	Compound NOT metabolized	Compound NOT metabolized	Compound NOT metabolized	Compound NOT metabolized	Compound NOT metabolized	Compound NOT metabolized	Compound NOT metabolized	Compound NOT metabolized	Compound metabolized	Compound NOT metabolized	Compound NOT metabolized	Compound NOT metabolized	Compound NOT metabolized	Compound NOT metabolized	Compound metabolized	Compound NOT metabolized
CC(C)c1nc(CN(C)C(=O)N[C@H](C(=O)N[C@@H](Cc2ccccc2)C[C@H](O)[C@H](Cc2ccccc2)NC(=O)OCc2cncs2)C(C)C)cs1 [RITONAVIR]	Compound metabolized	Compound metabolized	Compound metabolized	Compound metabolized	Compound metabolized	Compound metabolized	Compound NOT metabolized	Compound metabolized	Compound metabolized	Compound metabolized	Compound metabolized	Compound metabolized	Compound NOT metabolized	Compound metabolized	Compound metabolized	Compound metabolized	Compound metabolized	Compound NOT metabolized	Compound NOT metabolized	Compound metabolized
CC(=O)CC(c1ccccc1)c1c(O)c2ccccc2oc1=O (stereo not given) [WARFARIN]	Compound metabolized	Compound metabolized	Compound metabolized	Compound metabolized	Compound metabolized	Compound metabolized	Compound NOT metabolized	Compound metabolized	Compound metabolized	Compound metabolized	Compound metabolized	Compound metabolized	Compound metabolized	Compound NOT metabolized	Compound metabolized	Compound metabolized	Compound metabolized	Compound metabolized	Compound NOT metabolized	Compound metabolized
COc1ccc2c3c1O[C@H]1C[C@@H](O)C=C[C@@]31CCN(C)C2 [GALANTAMINE]	Compound NOT metabolized	Compound metabolized	Compound NOT metabolized	Compound NOT metabolized	Compound metabolized	Compound metabolized	Compound NOT metabolized	Compound NOT metabolized	Compound NOT metabolized	Compound NOT metabolized	Compound NOT metabolized	Compound NOT metabolized	Compound NOT metabolized	Compound NOT metabolized	Compound metabolized	Compound NOT metabolized	Compound NOT metabolized	Compound NOT metabolized	Compound NOT metabolized	Compound NOT metabolized
Nc1c2c(nc3ccccc13)CCCC2 [TACRINE]	Compound NOT metabolized	Compound NOT metabolized	Compound metabolized	Compound NOT metabolized	Compound metabolized	Compound metabolized	Compound NOT metabolized	Compound NOT metabolized	Compound NOT metabolized	Compound metabolized	Compound NOT metabolized	Compound NOT metabolized	Compound NOT metabolized	Compound NOT metabolized	Compound metabolized	Compound metabolized	Compound NOT metabolized	Compound NOT metabolized	Compound NOT metabolized	Compound NOT metabolized
O=P(O)(O)O.c1ccc(CN(CC2=NCCN2)c2ccccc2)cc1 [ANTAZOLINE PHOSPHATE]	Compound NOT metabolized	Compound NOT metabolized	Compound NOT metabolized	Compound metabolized	Compound NOT metabolized	Compound metabolized	Compound NOT metabolized	Compound NOT metabolized	Compound NOT metabolized	Compound NOT metabolized	Compound metabolized	Compound NOT metabolized	Compound NOT metabolized	Compound NOT metabolized	Compound metabolized	Compound NOT metabolized	Compound NOT metabolized	Compound NOT metabolized	Compound NOT metabolized	Compound NOT metabolized
